Reference: EP0540099A1, “Water soluble camptothecin derivatives” (priority 1991, dated 1993)

Tested on: HT-29 human colon tumor cells
Assay: Human colorectal adenocarcinoma HT-29 xenograft in vivo assay
Conditions: female NU/NU mice; for in vivo Antitumor activity (tumor wt day-50/tumor wt day-14): HT-29 s.c. xenograft, optimal dose, subcutaneously twice a week for 5 weeks from day 14; for effect on tumor (stasis or regression): HT-29 xenograft, after 5 weeks of treatment (day 50), ratio of 1 = stasis, less than 1 = regression
Procedure: Female NU/NU mice weighing 21 ± 2g, are used for this modified version of the test described by B.C. Giovanella, et al., Science, 246 1046 (1989). Control and test animals are injected subcutaneously in the sub-scapular region with a suspension of 10⁶ viable HT-29 human colon tumor cells on day 0. Tumors are allowed to grow for 2 weeks prior to drug administration. For each drug, several doses are chosen based on its in vitro activity against topoisomerase I. Each dose level group contains 8 animals. The test compounds are prepared in either 0.1 M acetate buffer, pH 5 (vehicle "a") or 87.5% phosphate buffered saline, 12.375% dimethylsulfoxide, and 0.125% Tween 80 (trademark of ICI America for polyoxyethylenesorbitan monooleate) (vehicle "b") and are administered subcutaneously twice a week for 5 weeks beginning on day 14. Doses are given on a mg/kg basis according to the mean body weight for each cage.
Tumor weight is calculated from two perpendicular caliper measurements of the tumor using the formula, tumor weight = length x width² ÷ 2 [formula] in millimeters. For each animal, tumor weight is monitored over the course of the experiment. For each group, the results are expressed as the ratio of the mean tumor weight immediately after 5 weeks of treatment (day 50) divided by the mean tumor weight immediately before treatment (day 14). […] The criterion for antitumor activity is at least 50% inhibition of tumor growth after 5 weeks of dosing (day 50), giving a ratio of less than or equal to ten. TABLE B

[1] = vehicle b: 87.5% phosphate buffered saline, 12.375% dimethylsulfoxide, 0.125% Tween 80
[2] = vehicle a: 0.1 M acetate buffer, pH 5

SMILES	in vivo Antitumor activity (tumor wt day-50/tumor wt day-14) [1]	effect on tumor (stasis or regression)	in vivo Antitumor activity (tumor wt day-50/tumor wt day-14) [2]
CC[C@@]1(O)C(=O)OCc2c1cc1n(c2=O)Cc2c-1nc1cc3c(cc1c2CN(C)C)OCO3 [Example 2, 7-Dimethylaminomethylene-10, 11-methylenedioxy-20(S)-camptothecin]	1.8^b		
CC[C@@]1(O)C(=O)OCc2c1cc1n(c2=O)Cc2c-1nc1cc3c(cc1c2CN(C)C)OCCO3 [Example 4, 7-Dimethylaminomethylene-10, 11-ethylenedioxy-20(S)-camptothecin]		tumor stasis	
CC[C@@]1(O)C(=O)OCc2c1cc1n(c2=O)Cc2c-1nc1cc3c(cc1c2CN1CCOCC1)OCCO3 [Example 6, 7-Morpholinomethylene-10, 11-ethylenedioxy-20(S)-camptothecin]	1.0^b	tumor stasis	
CC[C@@]1(O)C(=O)OCc2c1cc1n(c2=O)Cc2c-1nc1cc3c(cc1c2CN1CCN(C)CC1)OCCO3 [Example 11, 7-(4-methylpiperazinomethylene)-10, 11-ethylenedioxy-20(S)-camptothecin]		tumor regression	0.6^a
CCN(CC)Cc1c2c(nc3cc4c(cc13)OCCO4)-c1cc3c(c(=O)n1C2)COC(=O)[C@]3(O)CC [Example 14, 7-Diethylaminomethylene-10, 11-ethylenedioxy-20(S)-camptothecin]			2.0^a
CC[C@@]1(O)C(=O)OCc2c1cc1n(c2=O)Cc2c-1nc1cc3c(cc1c2CN1CCC1)OCO3 [Example 20, 7-Azetidinomethylene-10, 11-methylenedioxy-20(S)-camptothecin]			1.5^a
CC[C@@]1(O)C(=O)OCc2c1cc1n(c2=O)Cc2c-1nc1cc3c(cc1c2CN1CCC1)OCCO3 [Example 22, 7-Azetidinomethylene-10, 11-ethylenedioxy-20(S)-camptothecin]			1.6^a
CC[C@@]1(O)C(=O)OCc2c1cc1n(c2=O)Cc2c-1nc1cc3c(cc1c2CN1CCN(C)CC1)OCO3 [Example 23, 7-(4-Methylpiperazinomethylene)-10, 11-methylenedioxy-20(S)-camptothecin]		tumor regression	0.5^a
